Results taken from ChEMBL document CHEMBL2407082, “Tetrahydroquinoline-derived macrocyclic toolbox: the discovery of antiangiogenesis agents in zebrafish assay” (ACS Med Chem Lett, 2013).
Calls of active or inactive are those of the source. The calls are words filed in the database; no cut-off is given here.

Key:
[1] = species on record: Danio rerio; assay: Antiangiogenic activity in transgenic zebrafish embryo expressing EGFP at 2.5 uM after 36 hrs post fertilization by inverted microscopic analysis; assay type: functional, organism-based
[2] = species on record: Danio rerio; assay: Inhibition of AB zebrafish early embryo development assessed as delay in epiboly at 2.5 uM after 10 hrs post fertilization by inverted microscopic analysis; assay type: functional, organism-based

SMILES	inhibition [1]	inhibition [2]
C=CCOC[C@H](Cc1ccccc1)NC(=O)C[C@@H]1Nc2cc3c(cc2[C@@H]2OC(C)(C)O[C@@H]12)OCO3	Active	
C=CCOC(=O)N1c2cc3c(cc2[C@@H]2OC(C)(C)O[C@H]2[C@@H]1CCN(Cc1ccc(F)cc1)C(=O)[C@H](CC(C)C)NC(=O)OCC1c2ccccc2-c2ccccc21)OCO3		Active
CC[C@H](C)[C@@H]1NC(=O)C[C@H]2[C@@H]3OC(C)(C)O[C@H]3c3cc4c(cc3N2C/C=C\COC1=O)OCO4		Active
CC(C)C[C@@H]1NC(=O)C[C@H]2[C@@H]3OC(C)(C)O[C@H]3c3cc4c(cc3N2C/C=C\COC1=O)OCO4	Active	
C=CCOC(=O)N1c2cc3c(cc2[C@@H]2OC(C)(C)O[C@H]2[C@@H]1CCO)OCO3	Active	Active
